Inconclusive results and toxic doses are left out. How the source made its calls: active means survival T/C of 150% or more; inactive means T/C below 125% in these data.
Tested on: CD2F1 mice, L1210 leukemia ip, survival T/C
Assay: NCI In Vivo Anticancer Drug Screen. Data for tumor model L1210 Leukemia (intraperitoneal) in CD2F1 (CDF1) mice
Conditions: endpoint: mean survival time, higher = longer survival
Outline: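 Mice carrying a transplanted tumor received test compound or vehicle alone. The value is the measurement in the treated group divided by that in the vehicle-treated control group.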

[1] = dose: 100.0 mg/kg/injection, schedule: Q01DX001 (ip), vehicle: saline
[2] = dose: 100.0 mg/kg/injection, schedule: Q04DX003 (ip), vehicle: saline with Tween-80
[3] = dose: 200.0 mg/kg/injection, schedule: Q04DX003 (ip), vehicle: saline with Tween-80
[4] = dose: 400.0 mg/kg/injection, schedule: Q04DX003 (ip), vehicle: saline with Tween-80
[5] = dose: 100.0 mg/kg/injection, schedule: Q01DX009 (ip), vehicle: saline with Tween-80
[6] = dose: 200.0 mg/kg/injection, schedule: Q01DX009 (ip), vehicle: saline with Tween-80

Measured: T/C

CC(C)N1CCc2cc3c(cc2C1)OCO3
inactive: dose: 75.0 mg/kg/injection, schedule: Q01DX001 (ip), vehicle: saline 100 % of control | [1] 100 % of control

COc1ccc(N2C(=O)CSC2=S)cc1
inactive: [2] 102 % of control | [3] 96 % of control | [4] 102 % of control

CCOC(=O)C(=O)CC(=O)c1ccc(OC)cc1
inactive: [5] 98 % of control | [2] 100 % of control | [6] 96 % of control | [3] 95 % of control | dose: 400.0 mg/kg/injection, schedule: Q01DX009 (ip), vehicle: saline with Tween-80 101 % of control | [4] 95 % of control

NOCc1csc(NC(=O)Nc2ccccc2)n1
inactive: dose: 18.8 mg/kg/injection, schedule: Q01DX001 (ip), vehicle: saline with Tween-80 110 % of control | dose: 18.8 mg/kg/injection, schedule: Q04DX003 (ip), vehicle: saline with Tween-80 98 % of control | dose: 37.5 mg/kg/injection, schedule: Q01DX001 (ip), vehicle: saline with Tween-80 112 % of control | dose: 37.5 mg/kg/injection, schedule: Q04DX003 (ip), vehicle: saline with Tween-80 98 % of control | dose: 75.0 mg/kg/injection, schedule: Q01DX001 (ip), vehicle: saline with Tween-80 96 % of control | dose: 75.0 mg/kg/injection, schedule: Q04DX003 (ip), vehicle: saline with Tween-80 98 % of control

CCCCCC#CC1OC12CCCCC2 (configuration not stated)
inactive: dose: 12.5 mg/kg/injection, schedule: Q01DX009 (sc), vehicle: saline with Tween-80 97 % of control | dose: 25.0 mg/kg/injection, schedule: Q01DX009 (sc), vehicle: saline with Tween-80 104 % of control | dose: 50.0 mg/kg/injection, schedule: Q01DX009 (sc), vehicle: saline with Tween-80 98 % of control | dose: 100.0 mg/kg/injection, schedule: Q01DX009 (sc), vehicle: saline with Tween-80 103 % of control | dose: 200.0 mg/kg/injection, schedule: Q01DX009 (sc), vehicle: saline with Tween-80 98 % of control

COC(=O)C1=CNC=C(C(=O)OC)C1c1ccccc1Cl
inactive: [2] 95 % of control | [3] 97 % of control | [4] 89 % of control

CCOC(=O)CCN1CCCC2(C1)OCCO2
inactive: dose: 12.5 mg/kg/injection, schedule: Q04DX002 (ip), vehicle: saline 109 % of control | dose: 25.0 mg/kg/injection, schedule: Q04DX002 (ip), vehicle: saline 95 % of control | dose: 50.0 mg/kg/injection, schedule: Q04DX002 (ip), vehicle: saline 98 % of control

O=C1CSC(=S)N1
inactive: [5] 89 % of control | [2] 105 % of control | [6] 97 % of control | [3] 92 % of control | [4] 94 % of control

O=c1[nH]cnc2c1ncn2C1OC(CO)C(O)C1O (configuration not stated)
inactive: dose: 50.0 mg/kg/injection, schedule: Q01DX001 (ip), vehicle: saline 100 % of control | [1] 100 % of control | dose: 200.0 mg/kg/injection, schedule: Q01DX001 (ip), vehicle: saline 97 % of control | dose: 400.0 mg/kg/injection, schedule: Q01DX001 (ip), vehicle: saline 100 % of control
